# Values of other authors, collected in patent US20060269583A1, “Process and composition for treating wood” (priority 2005, published 2006).
# Conditions: in about 10 years under a given set of field conditions
substance,measurement,value
copper amine carbonate complex,copper removed by leaching,≤ 80%
